Source: patent US8987301B2, “Heteroarylaminoquinolines as TGF-beta receptor kinase inhibitors” (Merck Patent GmbH, priority 2009, dated 2015)

Target: T1, TβR (GST-ALK5) (Homo sapiens, UniProt P36897)
T1 sequence (P36897 34-503): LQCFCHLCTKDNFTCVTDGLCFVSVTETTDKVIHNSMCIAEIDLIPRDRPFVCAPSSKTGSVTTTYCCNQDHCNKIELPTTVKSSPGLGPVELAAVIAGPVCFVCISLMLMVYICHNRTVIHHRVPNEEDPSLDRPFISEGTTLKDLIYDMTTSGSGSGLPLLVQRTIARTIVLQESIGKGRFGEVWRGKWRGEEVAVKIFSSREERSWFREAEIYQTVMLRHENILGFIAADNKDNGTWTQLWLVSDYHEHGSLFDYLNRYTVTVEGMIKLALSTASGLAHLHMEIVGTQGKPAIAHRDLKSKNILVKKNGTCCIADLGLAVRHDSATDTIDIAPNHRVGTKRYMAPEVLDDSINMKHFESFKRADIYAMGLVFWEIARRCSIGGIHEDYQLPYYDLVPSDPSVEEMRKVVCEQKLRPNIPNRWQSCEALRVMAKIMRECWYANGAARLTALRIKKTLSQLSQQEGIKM
Test: In-vitro (enzyme) flashplate kinase assay, TβR activity
Assay type: biochemical
Settings: GST-ALK5, GST-SMAD2 substrate, 3 mM ATP
Experimental: In-Vitro (Enzyme) Assay for Determination of the Efficacy of Inhibitors of the Inhibition of TGF-Beta-Mediated Effects
The kinase assay was carried out as 384-well flashplate assay. […] The reaction was stopped using 25 μl of 200 mM EDTA solution, filtered with suction at room temperature after 30 min, and the wells were washed with 3 times 100 μl of 0.9% NaCl solution. Radioactivity was measured in the TopCount. The IC50 values were calculated using RS1. Above and below, all temperatures were indicated in ° C.

| IC50 | SMILES |
| --- | --- |
| > 10 µM | Clc1cccc(-c2cc(Nc3ccncc3)c3ccccc3n2)c1Cl [compound 112] |
| 1 to 10 µM | CC(=O)N(c1cc(N)ncn1)c1cc(-c2cc(Cl)ccc2F)nc2ccccc12 [compound 110] |
| < 0.5 µM | CC(=O)Nc1cc(Nc2cc(-c3cc(Cl)ccc3F)nc3ccccc23)ccn1 [compound 107] |
| < 0.5 µM | Nc1cc(Nc2cc(-c3cc(Cl)ccc3F)nc3ccccc23)ccn1 [compound 105] |
| < 0.5 µM | CN(C)CC(=O)Nc1cnccc1Nc1cc(-c2cc(Cl)ccc2F)nc2ccccc12 [compound 054] |
| > 10 µM | Fc1ccc(Cl)cc1-c1cc(Cc2ccncc2)c2ccccc2n1 [compound 004] |
| > 10 µM | CN1CCN(c2cc(Nc3cc(-c4cc(Cl)ccc4F)nc4ccccc34)cc(Cl)n2)CC1 [compound 097] |
| > 10 µM | Fc1ccc(Cl)cc1-c1cc(Nc2ccnc3[nH]ccc23)c2ccccc2n1 [compound 032] |
| < 0.5 µM | Fc1ccccc1-c1cc(Nc2ccncc2C(F)(F)F)c2ccccc2n1 [compound 046] |
| > 10 µM | CN1CCN(C(=O)Nc2cnccc2N(C(=O)N2CCN(C)CC2)c2cc(-c3cc(Cl)ccc3F)nc3ccccc23)CC1 [compound 061] |
| < 0.5 µM | COCC(=O)Nc1cnccc1Nc1cc(-c2cc(Cl)ccc2F)nc2ccccc12 [compound 086] |
| 1 to 10 µM | Fc1ccc(Cl)cc1-c1cc(Sc2ccncc2)c2ccccc2n1 [compound 011] |
| 1 to 10 µM | Fc1ccc(Cl)cc1-c1cc(N(c2ccncn2)c2cc(-c3cc(Cl)ccc3F)nc3ccccc23)c2ccccc2n1 [compound 017] |
| > 10 µM | COc1cc(Nc2cc(-c3cc(Cl)ccc3F)nc3ccccc23)ncn1 [compound 104] |
| 1 to 10 µM | CN(C)CCCNc1cc(Nc2cc(-c3cc(Cl)ccc3F)nc3ccccc23)cc(Cl)n1 [compound 102] |
| < 0.5 µM | Fc1ccc(Cl)cc1-c1cc(Nc2ccncn2)c2ccccc2n1 [compound 003] |
| < 0.5 µM | c1ccc(-c2cc(Nc3ccncc3)c3ccccc3n2)nc1 [compound 057] |
